Results: paper PMC9171587, “Novel α-Amylase Inhibitor Hemi-Pyocyanin Produced by Microbial Conversion of Chitinous Discards” (Marine Drugs, 2022)

Molecular target: T1, Porcine pancreatic α-amylase (Sus scrofa, UniProt P00690)
T1 construct: gene AMY2
T1 sequence (P00690 16-511): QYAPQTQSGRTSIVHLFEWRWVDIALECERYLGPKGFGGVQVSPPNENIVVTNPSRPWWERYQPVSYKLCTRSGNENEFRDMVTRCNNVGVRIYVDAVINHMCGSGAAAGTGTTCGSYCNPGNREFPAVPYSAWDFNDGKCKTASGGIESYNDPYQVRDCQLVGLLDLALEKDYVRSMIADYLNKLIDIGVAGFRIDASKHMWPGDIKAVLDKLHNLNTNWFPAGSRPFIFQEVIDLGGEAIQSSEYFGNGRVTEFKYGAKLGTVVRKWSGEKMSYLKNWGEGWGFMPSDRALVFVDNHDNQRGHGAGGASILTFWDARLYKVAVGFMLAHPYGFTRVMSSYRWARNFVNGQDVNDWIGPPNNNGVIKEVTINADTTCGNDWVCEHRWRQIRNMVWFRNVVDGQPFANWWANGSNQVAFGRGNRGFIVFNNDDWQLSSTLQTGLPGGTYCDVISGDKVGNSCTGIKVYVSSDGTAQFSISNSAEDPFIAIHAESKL
Experiment: starch hydrolysis assay (Bernfeld, reducing sugar at OD540) with commercial enzyme type VI-B
Format: biochemical

SMILES: Oc1cccc2nc3ccccc3nc12 [SF-1, hemi-pyocyanin]
- IC50: 15.8 µM
